# Reference: BindingDB's records for patent US10654860 (Bristol Myers Squibb, 2020)
# Biological target: Rho-associated protein kinase 2 (Homo sapiens, UniProt O75116)
# Test: In Vitro Assay
# Procedure: The effectiveness of compounds of the present invention as ROCK inhibitors can be determined in a 30 μL, assay containing 20 mM HEPES, pH 7.5, 20 mM MgCl2, 0.015% Brij-35, 4 mM DTT, 5 μM ATP and 1.5 μM peptide substrate (FITC-AHA-AKRRRLSSLRA-OH). Compounds were dissolved in DMSO so that the final concentration of DMSO was <2%, and the reaction was initiated with Rho kinase variants. After incubation, the reaction was terminated by the addition of EDTA and the phosphorylated and non-phosphorylated peptides separated using a LABCHIP 3000 Reader (Caliper Life Sciences). […] Compounds were tested in dose-response format, and the inhibition of kinase activity was calculated at each concentration of compound.
# Chain of Rho-associated protein kinase 2 (O75116 whole entry): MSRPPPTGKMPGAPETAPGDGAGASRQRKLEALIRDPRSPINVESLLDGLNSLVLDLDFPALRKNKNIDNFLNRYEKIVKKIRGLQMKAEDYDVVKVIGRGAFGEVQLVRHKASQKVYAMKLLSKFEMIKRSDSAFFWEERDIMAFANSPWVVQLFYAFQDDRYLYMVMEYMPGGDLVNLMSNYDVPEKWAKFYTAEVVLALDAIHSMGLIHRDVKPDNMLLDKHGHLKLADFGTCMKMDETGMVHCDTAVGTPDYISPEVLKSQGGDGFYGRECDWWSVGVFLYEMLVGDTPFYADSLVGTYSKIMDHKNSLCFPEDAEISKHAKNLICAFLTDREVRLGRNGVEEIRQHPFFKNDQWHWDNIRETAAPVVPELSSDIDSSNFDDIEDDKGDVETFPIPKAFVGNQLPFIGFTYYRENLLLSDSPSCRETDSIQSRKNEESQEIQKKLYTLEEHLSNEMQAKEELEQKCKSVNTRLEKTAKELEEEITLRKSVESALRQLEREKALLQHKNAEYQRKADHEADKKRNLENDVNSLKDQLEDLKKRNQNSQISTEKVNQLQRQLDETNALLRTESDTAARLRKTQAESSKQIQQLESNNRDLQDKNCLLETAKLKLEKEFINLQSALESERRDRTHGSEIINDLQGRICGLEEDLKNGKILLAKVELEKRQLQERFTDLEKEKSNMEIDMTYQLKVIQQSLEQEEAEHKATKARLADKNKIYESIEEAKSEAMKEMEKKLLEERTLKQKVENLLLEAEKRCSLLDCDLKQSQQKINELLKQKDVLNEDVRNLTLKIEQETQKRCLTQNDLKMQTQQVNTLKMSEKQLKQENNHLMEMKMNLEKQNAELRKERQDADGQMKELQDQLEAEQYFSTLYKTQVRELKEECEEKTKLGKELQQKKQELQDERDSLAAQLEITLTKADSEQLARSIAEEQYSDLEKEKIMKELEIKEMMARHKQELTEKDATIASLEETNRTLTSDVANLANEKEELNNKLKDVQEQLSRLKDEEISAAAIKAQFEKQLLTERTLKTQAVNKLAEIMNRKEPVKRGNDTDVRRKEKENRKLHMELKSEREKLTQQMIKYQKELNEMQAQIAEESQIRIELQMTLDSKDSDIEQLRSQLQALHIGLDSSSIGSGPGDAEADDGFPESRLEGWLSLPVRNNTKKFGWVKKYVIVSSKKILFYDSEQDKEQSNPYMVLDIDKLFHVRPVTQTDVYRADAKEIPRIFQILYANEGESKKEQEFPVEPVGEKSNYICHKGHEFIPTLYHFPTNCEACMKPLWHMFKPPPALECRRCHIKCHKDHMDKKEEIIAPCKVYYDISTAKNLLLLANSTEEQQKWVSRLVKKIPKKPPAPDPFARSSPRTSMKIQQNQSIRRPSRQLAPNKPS
structure (smiles),measurement,value
"N[C@H](CCc1ccccc1)C(=O)Nc1ccc2c(c1)CCc1n[nH]cc1-2 [US10654860, Example 4]",IC50,< 10 nM
